After the bases stand the sugars from the 5' end (letter, count) and the backbone: PS all phosphorothioate, else s phosphorothioate and o phosphodiester by linkage. Methylation of C is not given here. e = 2'-O-(2-methoxyethyl) (MOE); k = constrained ethyl (cEt); d = 2'-deoxy (DNA)
Target: SOD1
Details: ASO

GACTACGACGCAAACCAGCA (sugars e5 d10 e5, PS)
target mRNA inhibition (HepG2, 4 µM): 40%

AAATCTTCCAAGTGATC (sugars e2 k2 d9 k2 e2, PS)
target mRNA inhibition (HepG2, 5 µM): 48%

CTTCCCCACACCTTCA (sugars kekeddddddddekek, linkages s1 o3 s8 o1 s2)
target mRNA inhibition (A431, 0.12 µM): 0%
target mRNA inhibition (A431, 0.6 µM): 8%
target mRNA inhibition (A431, 3 µM): 8%
target mRNA inhibition (A431, 15 µM): 18%
target mRNA inhibition (HepG2, 0.222 µM): 8%
target mRNA inhibition (HepG2, 0.667 µM): 14%
target mRNA inhibition (HepG2, 2 µM): 51%
target mRNA inhibition (HepG2, 6 µM): 76%

ATTCACAGGCTTGAATG (sugars e3 k2 d7 k2 e3, PS)
target mRNA inhibition (HepG2, 3 µM): 11%

GTGCGGCCAATGATGCAATG (sugars e5 d10 e5, PS)
target mRNA inhibition (HepG2, 5 µM): 12%

ATAAAACTATACAAATC (sugars e3 k2 d7 k2 e3, PS)
target mRNA inhibition (HepG2, 3 µM): 14%

CATGGAATCCATGCAGG (sugars e3 k2 d7 k2 e3, PS)
target mRNA inhibition (HepG2, 3 µM): 14%

GCTTCCCCACACCTTCAC (sugars e5 d8 e5, linkages s1 o3 s9 o2 s2)
target mRNA inhibition (A431, 0.12 µM): 0%
target mRNA inhibition (A431, 0.6 µM): 1%
target mRNA inhibition (A431, 3 µM): 0%
target mRNA inhibition (A431, 15 µM): 5%
target mRNA inhibition (HepG2, 0.222 µM): 8%
target mRNA inhibition (HepG2, 0.667 µM): 29%
target mRNA inhibition (HepG2, 2 µM): 46%
target mRNA inhibition (HepG2, 6 µM): 76%

AATGTTTATCAGGATA (sugars ekddddddddekekee, linkages s1 o1 s8 o3 s2)
target mRNA inhibition (A431, 0.12 µM): 10%
target mRNA inhibition (A431, 0.6 µM): 30%
target mRNA inhibition (A431, 3 µM): 51%
target mRNA inhibition (A431, 15 µM): 72%

TTAAGATTACAGTGTTT (sugars e3 k2 d7 k2 e3, PS)
target mRNA inhibition (HepG2, 3 µM): 54%

TACAGGTACTTTAAAGC (sugars e2 k2 d9 k2 e2, PS)
target mRNA inhibition (HepG2, 5 µM): 26%

GGGCCTCAGACTACATC (sugars e2 k2 d9 k2 e2, PS)
target mRNA inhibition (HepG2, 4 µM): 58%

GTCTCCGCGACTACTTTATA (sugars e5 d10 e5, PS)
target mRNA inhibition (HepG2, 4 µM): 22%

ATACAGGTCATTGAAAC (sugars e3 k2 d7 k2 e3, PS)
target mRNA inhibition (HepG2, 3 µM): 14%

AGTTTAATACCCATCTG (sugars e2 k2 d8 k2 e3, PS)
target mRNA inhibition (HepG2, 5 µM): 29%

TCTGAAAAAGTCACACAATT (sugars e5 d10 e5, PS)
target mRNA inhibition (HepG2, 5 µM): 5%

ATGATGCCCTGCACTGGGCC (sugars e5 d10 e5, PS)
target mRNA inhibition (HepG2, 4 µM): 20%

TACCCATCTGTGATTTA (sugars e2 k2 d9 k2 e2, PS)
target mRNA inhibition (HepG2, 5 µM): 45%

CCCCACACCTTCACTGG (sugars e3 k2 d7 k2 e3, PS)
target mRNA inhibition (HepG2, 3 µM): 14%

ACATCCAAGGGAATGTT (sugars e3 k2 d7 k2 e3, PS)
target mRNA inhibition (HepG2, 3 µM): 30%

AATCTTCCAAGTGATCA (sugars e3 k2 d7 k2 e3, PS)
target mRNA inhibition (HepG2, 3 µM): 23%

CTTTTAATAGCCTCATA (sugars e2 k2 d9 k2 e2, PS)
target mRNA inhibition (HepG2, 5 µM): 34%

ATACAAATCTTCCAAGT (sugars e3 k2 d7 k2 e3, PS)
target mRNA inhibition (HepG2, 3 µM): 15%

ATCAGTTTCTCACTACA (sugars e2 k2 d9 k2 e2, PS)
target mRNA inhibition (HepG2, 5 µM): 44%

GGATACATTTCTACAGC (sugars e2 k2 d9 k2 e2, PS)
target mRNA inhibition (HepG2, 0.1875 µM): 44%
target mRNA inhibition (HepG2, 0.75 µM): 67%
target mRNA inhibition (HepG2, 3 µM): 89%
target mRNA inhibition (HepG2, 4 µM): 84%
target mRNA inhibition (HepG2, 12 µM): 94%

TTCTCACTACAGGTACTTTA (sugars e5 d10 e5, PS)
target mRNA inhibition (HepG2, 5 µM): 28%
